# Measurements published in patent US5476851A, “Pyrazolo[3,4-g]quinoxaline compounds which inhibit PDGF receptor protein tyrosine kinase” (Rhone-Poulenc Rorer Pharmaceuticals, Inc., priority 1994, dated 1995).
# Molecular target: T1, PDGF-R (Mus musculus, UniProt P05622)
# T1 construct: endogenous in cells; host or cells: NIH 3T3 cells (lysate, immunoprecipitate)
# Experiment: Inhibition of PDGF-R cell-free autophosphorylation
# Assay type: biochemical
# Conditions: lysate from NIH 3T3 cells, stimulated with 10 ng/ml PDGF, [γ-^32 P]ATP, 4° C., immunoprecipitation
# Protocol: In order to test the present compounds for inhibition, the following procedure using PDGF stimulation is used. "IC50," as used below refers to the concentration of inhibitor ([…]) at which the rate of autophosphorylation is halved, compared with media containing no inhibitor.
# Inhibition of PDGF-R Autophosphorylation
# Lysate from NIH 3T3 cells was diluted one-third in Triton-free buffer and stimulated with 10 ng/ml PDGF for 30 minutes at 4° C. The equivalent of 1/15 of a 175. cm^2 plate of lysate was used per sample. The stimulated lysate was then immunoprecipitated with rabbit polyclonal anti-PDGF-receptor antibodies raised against a synthetic peptide from the COOH-terminal region (amino acids 1094-1106) or the human PDGF-receptor β-subunit and added to increasing concentrations of test compound of the present invention. After 10 minutes at 4° C., 10 μCi of [γ-^32 P]ATP were added and further incubated for 10 minutes at 4° C. Samples were separated by SDS-PAGE on 6% gels.
# The following tables show examples of representative compounds of this invention and their test results as determined by the above inhibition of PDGF-R cell-free autophosphorylation procedure.
# T1 sequence (P05622 32-1098): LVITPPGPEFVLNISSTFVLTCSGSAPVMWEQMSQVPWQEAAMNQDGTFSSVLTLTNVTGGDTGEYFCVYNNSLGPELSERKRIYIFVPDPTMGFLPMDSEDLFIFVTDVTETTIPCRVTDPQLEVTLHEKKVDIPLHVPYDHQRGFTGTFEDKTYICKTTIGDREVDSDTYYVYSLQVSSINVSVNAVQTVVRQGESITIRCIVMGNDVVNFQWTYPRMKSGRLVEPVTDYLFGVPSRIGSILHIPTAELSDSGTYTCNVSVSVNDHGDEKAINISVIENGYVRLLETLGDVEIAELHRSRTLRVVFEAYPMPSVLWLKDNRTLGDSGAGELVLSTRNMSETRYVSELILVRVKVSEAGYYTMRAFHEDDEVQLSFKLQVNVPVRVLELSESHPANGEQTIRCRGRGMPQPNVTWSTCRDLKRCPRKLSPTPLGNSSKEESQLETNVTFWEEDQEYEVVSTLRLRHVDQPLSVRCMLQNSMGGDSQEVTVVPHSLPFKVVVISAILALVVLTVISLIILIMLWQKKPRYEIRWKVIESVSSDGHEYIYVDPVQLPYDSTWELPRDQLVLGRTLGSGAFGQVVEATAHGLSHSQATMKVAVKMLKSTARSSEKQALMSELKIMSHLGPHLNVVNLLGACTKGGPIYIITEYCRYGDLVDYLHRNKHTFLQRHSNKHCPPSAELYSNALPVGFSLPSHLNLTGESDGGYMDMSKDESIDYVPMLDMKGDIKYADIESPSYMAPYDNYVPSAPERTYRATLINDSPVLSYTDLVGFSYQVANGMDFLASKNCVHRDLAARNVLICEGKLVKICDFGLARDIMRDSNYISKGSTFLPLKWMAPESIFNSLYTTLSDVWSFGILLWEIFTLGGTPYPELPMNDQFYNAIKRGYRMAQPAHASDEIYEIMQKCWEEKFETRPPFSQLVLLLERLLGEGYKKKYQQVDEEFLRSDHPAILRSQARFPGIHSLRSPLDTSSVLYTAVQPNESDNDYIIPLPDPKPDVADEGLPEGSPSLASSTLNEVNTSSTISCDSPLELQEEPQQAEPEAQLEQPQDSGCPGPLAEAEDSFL
row,IC50 [nM],SMILES
1,2000 to 10000,Clc1ccc(-c2cnc3cc4cn[nH]c4cc3n2)s1
2,300,Cn1cc2cc3ncc(-c4ccc(Cl)s4)nc3cc2n1
3,< 20,COc1ccc(-c2cnc3cc4cn[nH]c4cc3n2)cc1F
4,< 2000,COc1ccc(-c2cnc3cc4cnn(C)c4cc3n2)cc1F
5,< 20,COc1ccc(-c2cnc3cc4cn(C)nc4cc3n2)cc1F
